Earlier results as cited in publication PMC8198792, “Prediction of Anticancer Peptides with High Efficacy and Low Toxicity by Hybrid Model Based on 3D Structure of Peptides” (International Journal of Molecular Sciences, 2021).
Read-outs that look alike come from different tables or passages of the source.

What was measured:
cancer cell lines = test system: cancer cell lines; set-up: method as in 6 sources, ref CancerPPD [45] and SATPdb ||| ref CancerPPD/SATPdb ||| ref CancerPPD, SATPdb, Swissprot (PDB) ||| ref CancerPPD/SATPdb/Swissprot(PDB) ||| ref CancerPPD / SATPdb ||| ...; conditions: cited from earlier work
Excerpt: Supplement ijms-22-05630-s001.zip/ACPs(seguence).xlsx, sheet "D1" | column: Activity || Supplement ijms-22-05630-s001.zip/ACPs(seguence).xlsx, sheet "D2" | column: Activity || Supplement ijms-22-05630-s001.zip/ACPs(seguence).xlsx, sheet "D3" | column: Activity || (+ 2 further places)

erythrocytes = conditions: cited from earlier work
Excerpt: Supplement ijms-22-05630-s001.zip/Hemloytic Peptides(seguence).xlsx, sheet "HD1" | column: Activity || Supplement ijms-22-05630-s001.zip/Hemloytic Peptides(seguence).xlsx, sheet "HD2" | column: Activity || Supplement ijms-22-05630-s001.zip/Hemloytic Peptides(seguence).xlsx, sheet "HD3" | column: Activity

[1] = ACPs dataset D1, label 1 = ACP, 0 = non-ACP (non-anticancer AMPs from SATPdb), ref CancerPPD/SATPdb
[2] = ACPs dataset D4 (sheet "D4"), label 1 = ACP (CancerPPD ID), 0 = non-ACP (non-anticancer AMP, SATPdb ID), ref CancerPPD [45] and SATPdb
[3] = hemolytic peptides dataset HD3, 1 = hemolytic (positive set), 0 = non-hemolytic (negative set), labels taken from databases, ref Hemolytik/SATPdb
[4] = natural hemolytic peptide dataset HD1, label collected from databases, ref Hemolytik [49], SATPdb [34]
[5] = ACPs dataset D1, 1 = ACP (positive), 0 = non-ACP (negative), label taken from databases, ref CancerPPD [45] and SATPdb
[6] = ACPs dataset D3 (sheet "D3"), label 1 = ACP, 0 = non-ACP, ref CancerPPD/SATPdb
[7] = ACPs dataset D4 (sheet "D4"), label 1 = ACP, 0 = non-ACP, ref CancerPPD / SATPdb
[8] = ACPs dataset D5, sheet "D5", label 1 = ACP, 0 = non-ACP, ref CancerPPD [45] and SATPdb
[9] = ACPs dataset D3 (supplement sheet "D3"), 1 = ACP, 0 = non-ACP, ref CancerPPD [45] and SATPdb
[10] = Hemolytic peptides dataset HD2, label 1 = hemolytic, 0 = non-hemolytic, ref Hemolytik/SATPdb

Row | Substance | Activity (erythrocytes; [3]) | Activity (cancer cell lines; [6]) | Activity (cancer cell lines; [7]) | Activity (cancer cell lines; [8]) | Activity (erythrocytes) | Activity (cancer cell lines; [9]) | further results
1 | VFQFLGKIIHHVGNFVHGFSHVF [satpdb12167] | 1 |  |  |  |  |  | Activity (cancer cell lines; [1]): 0; Activity (cancer cell lines; [2]): 0; Activity (dataset HD1, hemolytic 1 / non-hemolytic 0) (erythrocytes; [4]): 1
2 | GLWDTIKQAGKKFFLNVLDKIRCKVAGGCRT [satpdb11099] | 1 |  |  |  |  |  | Activity (cancer cell lines; [5]): 0; Activity (cancer cell lines; [2]): 0; Activity (dataset HD1, hemolytic 1 / non-hemolytic 0) (erythrocytes; [4]): 1
3 | VKlKVyPLKVKLyP [satpdb13308] |  | 0 | 0 | 0 | 1 |  | 
4 | FKCKKVVISLRRY [satpdb11913] | 0 |  |  |  |  |  | Activity (cancer cell lines; [1]): 0; Activity (cancer cell lines; [2]): 0; Activity (dataset HD1, hemolytic 1 / non-hemolytic 0) (erythrocytes; [4]): 0
5 | FSPQMLQDIIEKKTKIL [satpdb13152] |  |  | 0 |  | 0 |  | Activity (cancer cell lines; [1]): 0; Activity (dataset HD1, hemolytic 1 / non-hemolytic 0) (erythrocytes): 0
6 | RRWPWWPWKWPLI [satpdb10003] |  |  | 0 | 0 | 1 | 0 | 
7 | IWRIFRRIFRIF [satpdb11167] | 1 |  | 0 | 0 |  | 0 | Activity (erythrocytes; [10]): 1
8 | ILPWKWPWWPWRR [satpdb10356] | 1 |  | 0 | 0 |  | 0 | Activity (erythrocytes; [10]): 1
9 | QLKVDLWGTRSGIQPEQHSSGKSDVRRWRSRY [satpdb10403] |  |  | 0 | 0 | 0 | 0 | 
10 | KWFRVYRGIYRRR [satpdb13764] |  | 0 | 0 | 0 | 0 |  | 
11 | ALWFTMLKKLGTMALHAGKAALGAAANTISQGTQ [satpdb13357] |  |  | 0 |  | 1 |  | Activity (cancer cell lines; [1]): 0; Activity (dataset HD1, hemolytic 1 / non-hemolytic 0) (erythrocytes): 1
12 | VKLKVyPLKvKLyP [satpdb12258] | 1 | 0 | 0 | 0 |  |  | Activity (erythrocytes; [10]): 1
13 | GLGKFLHSAKRFGKAFVGEAMNS [satpdb13009] |  | 0 | 0 | 0 | 1 |  | 
14 | DYDWSLRGPPKCATYGQKCRTWSPPNCCWNLRCKAFRCRPR [satpdb13169] | 1 |  | 0 |  |  |  | Activity (cancer cell lines; [1]): 0; Activity (dataset HD1, hemolytic 1 / non-hemolytic 0) (erythrocytes; [4]): 1
15 | LLIILRRRWRRQARARSR [satpdb11798] |  |  | 0 | 0 | 1 | 0 | 
16 | AKKVFKRLGIGAVLWVLTWG [satpdb10183] | 1 |  |  |  |  |  | Activity (cancer cell lines; [5]): 0; Activity (cancer cell lines; [2]): 0; Activity (dataset HD1, hemolytic 1 / non-hemolytic 0) (erythrocytes; [4]): 1
17 | PICKRNGLPVCGETCTLGTCYTQGCTCSW [satpdb10279] | 1 |  |  |  |  |  | Activity (cancer cell lines; [1]): 0; Activity (cancer cell lines; [2]): 0; Activity (dataset HD1, hemolytic 1 / non-hemolytic 0) (erythrocytes; [4]): 1
18 | RKLRRLKRKIAHKVKKY [satpdb10022] |  |  | 0 | 0 | 0 | 0 | 
19 | ILPFKFPFFPFRR [satpdb11100] | 1 |  | 0 | 0 |  | 0 | Activity (erythrocytes; [10]): 1
20 | KWKKPLLKKLLKKL [satpdb12744] |  | 0 | 0 | 0 | 1 |  | 
21 | LLIILKKKWKKQAKAKSK [satpdb13450] | 1 | 0 | 0 | 0 |  |  | Activity (erythrocytes; [10]): 1
22 | LLIILRRRWRKQARARSK [satpdb13104] |  | 0 | 0 | 0 | 1 |  | 
23 | GFMKYIKPLIPHAVKAIKKLI [satpdb12244] |  | 0 | 0 | 0 | 1 |  | 

Row | Substance | Activity (erythrocytes; [3]) | Activity (cancer cell lines; [6]) | Activity (cancer cell lines; [7]) | Activity (cancer cell lines; [8]) | Activity (erythrocytes) | Activity (cancer cell lines; [9]) | further results
24 | KWKSFLKTFKSAKKTVLHTALKLISS [satpdb12569] |  | 0 | 0 | 0 | 1 |  | 
25 | VKLKVypLKVKLyP [satpdb10873] | 1 |  | 0 | 0 |  | 0 | Activity (erythrocytes; [10]): 1
26 | ILPKKKPWWPWRR [satpdb13640] |  | 0 | 0 | 0 | 1 |  | 
27 | CIAKGNGCQPSGVQGNCCSGHCHKEPGWVAGYCK [satpdb13088] | 0 | 0 | 0 | 0 |  |  | Activity (erythrocytes; [10]): 0
28 | GKKLLKKLKKLLKKW [satpdb10586] |  |  | 0 | 0 | 1 | 0 | 
29 | CGESCVWIPCTITALAGCKCKSKVCYNSIP [satpdb10149] | 1 |  |  |  |  |  | Activity (cancer cell lines; [1]): 0; Activity (cancer cell lines; [2]): 0; Activity (dataset HD1, hemolytic 1 / non-hemolytic 0) (erythrocytes; [4]): 1
30 | KKKLLLLLLLLLKKK [satpdb10761] | 1 |  | 0 | 0 |  | 0 | Activity (erythrocytes; [10]): 1
31 | FLPAIAGILSQLF [satpdb10431] |  |  | 0 | 0 | 1 | 0 | 
32 | KNLRRIIRKGIHIIKKYF [satpdb11799] |  |  |  |  | 1 |  | Activity (cancer cell lines; [1]): 0; Activity (cancer cell lines; [2]): 0; Activity (dataset HD1, hemolytic 1 / non-hemolytic 0) (erythrocytes): 1
33 | GIGKFLHTLKTFGKKWVGEIMNS [satpdb13533] |  | 0 | 0 | 0 | 1 |  | 
34 | RWSVYAYVRVRGVLVRYRRSW [satpdb10414] |  |  |  |  | 1 |  | Activity (cancer cell lines; [5]): 0; Activity (cancer cell lines; [2]): 0; Activity (dataset HD1, hemolytic 1 / non-hemolytic 0) (erythrocytes): 1
35 | KKVVFKVKFKK [satpdb13401] |  | 0 | 0 | 0 | 0 |  | 
36 | FLPLIGAVLSGIL [satpdb13723] |  | 0 | 0 | 0 | 1 |  | 
37 | GIGAVLK*VLTTGLpALISWIK*RK*RQQ [satpdb13686] | 1 | 0 | 0 | 0 |  |  | Activity (erythrocytes; [10]): 1
38 | GLKEIFKAGLGSLVKGIAAHVAS [satpdb12238] |  | 0 |  |  | 1 |  | 
39 | AKKVFKRLEKLFSKIQNDK [satpdb11343] |  |  | 0 | 0 | 0 | 0 | 
40 | KfKLKQ [satpdb10387] | 0 |  | 0 | 0 |  | 0 | Activity (erythrocytes; [10]): 0
41 | FLPLIGRVLSGIA [satpdb10103] |  |  | 0 | 0 | 1 | 0 | 
42 | CGESCVFIPCISTLLGCSCKNKVCYRNGVIP [satpdb11124] | 1 |  |  |  |  |  | Activity (cancer cell lines; [1]): 0; Activity (cancer cell lines; [2]): 0; Activity (dataset HD1, hemolytic 1 / non-hemolytic 0) (erythrocytes; [4]): 1
43 | VKLyPVKLyP [satpdb11941] | 1 |  | 0 | 0 |  | 0 | Activity (erythrocytes; [10]): 1
44 | KEKLKLKCKAPKCYNDKLACT [satpdb13157] |  |  | 0 |  | 0 |  | Activity (cancer cell lines; [1]): 0; Activity (dataset HD1, hemolytic 1 / non-hemolytic 0) (erythrocytes): 0
45 | GLLGPLLKIAAKVGKKLL [satpdb11754] |  |  | 0 | 0 | 1 | 0 | 
46 | LALKSGGWLRLFGLKDKKH [satpdb12814] | 1 |  | 0 |  |  |  | Activity (cancer cell lines; [1]): 0; Activity (dataset HD1, hemolytic 1 / non-hemolytic 0) (erythrocytes; [4]): 1
